Measurements: ChEMBL document CHEMBL2010722, “Structure-activity relationship study of beta-carboline derivatives as haspin kinase inhibitors” (Bioorg Med Chem Lett, 2012)

Tests used:
[1] = system: Epidermal growth factor receptor (Homo sapiens), P00533 [L858R,T790M]; assay: Inhibition of EGFR T790M/L858R mutant at 10 uM; format: protein assay
[2] = system: Epidermal growth factor receptor (Homo sapiens), P00533 [T790M]; assay: Inhibition of EGFR T790M mutant at 10 uM; format: protein assay
[3] = biological target: Ephrin type-A receptor 4 (Homo sapiens) (UniProt P54764); assay: Inhibition of EPHA4 at 10 uM
[4] = biological target: Tyrosine-protein kinase Fes/Fps (Homo sapiens) (UniProt P07332); assay: Inhibition of FES at 10 uM
[5] = biological target: Fibroblast growth factor receptor 2 (Homo sapiens) (UniProt P21802); assay: Inhibition of FGFR2 at 10 uM
Fibroblast growth factor receptor 2 (Homo sapiens), sequence (P21802 22-821 limits assumed): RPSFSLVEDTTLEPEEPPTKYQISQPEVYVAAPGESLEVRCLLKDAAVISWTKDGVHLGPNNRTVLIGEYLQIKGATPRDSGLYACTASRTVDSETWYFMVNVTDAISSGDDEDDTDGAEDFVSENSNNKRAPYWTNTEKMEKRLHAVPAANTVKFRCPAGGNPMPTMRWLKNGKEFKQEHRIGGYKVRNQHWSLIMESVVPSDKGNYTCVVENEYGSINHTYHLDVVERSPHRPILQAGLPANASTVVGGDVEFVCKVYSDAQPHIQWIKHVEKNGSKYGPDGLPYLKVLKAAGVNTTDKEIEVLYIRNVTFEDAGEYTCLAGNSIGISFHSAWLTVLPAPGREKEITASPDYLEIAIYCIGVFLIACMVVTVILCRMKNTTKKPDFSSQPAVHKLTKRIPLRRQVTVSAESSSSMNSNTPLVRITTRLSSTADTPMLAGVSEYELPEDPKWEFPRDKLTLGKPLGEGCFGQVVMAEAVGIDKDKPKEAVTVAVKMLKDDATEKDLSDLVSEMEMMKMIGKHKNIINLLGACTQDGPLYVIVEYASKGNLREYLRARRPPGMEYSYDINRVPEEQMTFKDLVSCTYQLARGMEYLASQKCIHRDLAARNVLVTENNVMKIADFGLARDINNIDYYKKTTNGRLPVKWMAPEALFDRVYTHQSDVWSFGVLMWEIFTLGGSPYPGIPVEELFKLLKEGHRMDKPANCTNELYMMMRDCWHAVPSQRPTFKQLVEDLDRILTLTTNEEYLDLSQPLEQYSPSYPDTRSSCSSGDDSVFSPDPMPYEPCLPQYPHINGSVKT

[6] = system: Fibroblast growth factor receptor 3 (Homo sapiens), P22607 [K650E]; assay: Inhibition of FGFR3 K650E mutant at 10 uM
[7] = biological target: Tyrosine-protein kinase Fgr (Homo sapiens) (UniProt P09769); assay: Inhibition of FGR at 10 uM
[8] = biological target: Vascular endothelial growth factor receptor 1 (Homo sapiens) (UniProt P17948); assay: Inhibition of FLT1 at 10 uM
[9] = biological target: Macrophage colony-stimulating factor 1 receptor (Homo sapiens) (UniProt P07333); assay: Inhibition of FMS at 10 uM
Macrophage colony-stimulating factor 1 receptor (Homo sapiens), sequence (P07333 whole entry): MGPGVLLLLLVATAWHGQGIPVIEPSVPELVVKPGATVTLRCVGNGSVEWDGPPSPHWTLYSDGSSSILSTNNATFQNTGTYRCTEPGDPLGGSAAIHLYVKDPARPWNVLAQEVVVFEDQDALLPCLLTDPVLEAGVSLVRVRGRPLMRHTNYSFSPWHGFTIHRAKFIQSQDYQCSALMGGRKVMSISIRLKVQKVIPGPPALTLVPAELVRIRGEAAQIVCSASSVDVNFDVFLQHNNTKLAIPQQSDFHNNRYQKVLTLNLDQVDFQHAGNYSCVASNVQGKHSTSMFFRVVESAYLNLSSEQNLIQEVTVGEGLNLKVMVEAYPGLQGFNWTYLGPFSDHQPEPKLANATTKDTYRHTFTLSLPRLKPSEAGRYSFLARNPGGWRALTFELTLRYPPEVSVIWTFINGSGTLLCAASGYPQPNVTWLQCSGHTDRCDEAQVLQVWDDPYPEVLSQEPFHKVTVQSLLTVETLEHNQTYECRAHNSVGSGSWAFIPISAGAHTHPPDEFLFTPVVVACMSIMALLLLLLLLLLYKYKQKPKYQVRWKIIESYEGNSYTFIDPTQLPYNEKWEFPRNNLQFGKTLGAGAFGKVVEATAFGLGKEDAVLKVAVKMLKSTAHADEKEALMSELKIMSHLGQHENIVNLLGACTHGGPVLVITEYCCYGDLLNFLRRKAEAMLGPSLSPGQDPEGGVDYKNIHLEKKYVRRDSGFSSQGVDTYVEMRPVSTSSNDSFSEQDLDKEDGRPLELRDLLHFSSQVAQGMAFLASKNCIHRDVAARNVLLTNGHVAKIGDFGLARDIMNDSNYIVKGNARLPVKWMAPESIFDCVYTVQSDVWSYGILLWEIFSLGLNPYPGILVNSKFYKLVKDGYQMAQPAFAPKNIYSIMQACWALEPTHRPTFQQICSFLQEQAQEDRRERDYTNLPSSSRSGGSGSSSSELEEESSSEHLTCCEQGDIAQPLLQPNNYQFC

[10] = biological target: Tyrosine-protein kinase HCK (Homo sapiens) (UniProt P08631); assay: Inhibition of HCK at 10 uM
[11] = biological target: Insulin receptor-related protein (Homo sapiens) (UniProt P14616); assay: Inhibition of IRR at 10 uM
[12] = biological target: Tyrosine-protein kinase JAK1 (Homo sapiens) (UniProt P23458); assay: Inhibition of JAK1 at 10 uM
Tyrosine-protein kinase JAK1 (Homo sapiens), sequence (P23458 whole entry): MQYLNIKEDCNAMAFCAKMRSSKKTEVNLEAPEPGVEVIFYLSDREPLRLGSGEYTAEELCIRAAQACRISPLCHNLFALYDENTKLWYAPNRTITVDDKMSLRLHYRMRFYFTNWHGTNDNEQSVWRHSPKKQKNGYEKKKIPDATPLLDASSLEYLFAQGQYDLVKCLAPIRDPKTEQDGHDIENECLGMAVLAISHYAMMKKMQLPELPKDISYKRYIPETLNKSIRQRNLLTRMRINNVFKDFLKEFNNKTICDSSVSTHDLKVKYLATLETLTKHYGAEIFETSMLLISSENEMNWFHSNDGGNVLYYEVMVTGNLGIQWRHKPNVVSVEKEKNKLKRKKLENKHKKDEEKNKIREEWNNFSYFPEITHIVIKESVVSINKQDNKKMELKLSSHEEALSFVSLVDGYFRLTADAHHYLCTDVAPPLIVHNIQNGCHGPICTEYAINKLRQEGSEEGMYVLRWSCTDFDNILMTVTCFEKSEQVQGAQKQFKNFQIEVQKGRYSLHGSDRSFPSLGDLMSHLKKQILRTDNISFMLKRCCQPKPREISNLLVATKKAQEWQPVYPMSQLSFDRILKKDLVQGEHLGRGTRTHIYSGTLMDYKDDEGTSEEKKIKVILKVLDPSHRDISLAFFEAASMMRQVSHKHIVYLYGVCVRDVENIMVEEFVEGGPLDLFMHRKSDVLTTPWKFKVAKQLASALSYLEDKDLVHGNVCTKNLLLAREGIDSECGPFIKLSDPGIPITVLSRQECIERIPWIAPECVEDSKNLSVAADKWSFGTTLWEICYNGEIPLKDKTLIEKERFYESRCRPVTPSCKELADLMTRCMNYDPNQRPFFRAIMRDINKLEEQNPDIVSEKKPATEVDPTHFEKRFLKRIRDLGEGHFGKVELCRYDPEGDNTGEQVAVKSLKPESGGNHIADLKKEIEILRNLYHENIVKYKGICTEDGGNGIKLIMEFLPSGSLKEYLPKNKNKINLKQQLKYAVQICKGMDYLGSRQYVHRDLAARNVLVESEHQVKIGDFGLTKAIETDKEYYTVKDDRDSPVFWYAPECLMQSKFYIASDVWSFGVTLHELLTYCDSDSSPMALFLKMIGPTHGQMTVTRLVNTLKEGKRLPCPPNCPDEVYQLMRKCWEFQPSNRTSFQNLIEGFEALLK

[13] = biological target: Mast/stem cell growth factor receptor Kit (Homo sapiens) (UniProt P10721); assay: Inhibition of KIT at 10 uM
[14] = system: Mast/stem cell growth factor receptor Kit (Homo sapiens), P10721 [D816V]; assay: Inhibition of KIT D816V mutant at 10 uM
[15] = system: Mast/stem cell growth factor receptor Kit (Homo sapiens), P10721 [V560G]; assay: Inhibition of KIT V560G mutant at 10 uM
[16] = biological target: Muscle, skeletal receptor tyrosine-protein kinase (Homo sapiens) (UniProt O15146); assay: Inhibition of MUSK at 10 uM
[17] = biological target: Platelet-derived growth factor receptor alpha (Homo sapiens) (UniProt P16234); assay: Inhibition of PDGFRa at 10 uM
[18] = biological target: Platelet-derived growth factor receptor beta (Homo sapiens) (UniProt P09619); assay: Inhibition of PDGFRb at 10 uM
[19] = biological target: Macrophage-stimulating protein receptor (Homo sapiens) (UniProt Q04912); assay: Inhibition of RON at 10 uM
[20] = biological target: Serine/threonine-protein kinase BRSK1 (Homo sapiens) (UniProt Q8TDC3); assay: Inhibition of BRSK1 at 10 uM
[21] = biological target: Calcium/calmodulin-dependent protein kinase type II subunit alpha (Homo sapiens) (UniProt Q9UQM7); assay: Inhibition of CaMK2a at 10 uM
[22] = biological target: Serine/threonine-protein kinase Chk1 (Homo sapiens) (UniProt O14757); assay: Inhibition of CHK1 at 10 uM
Serine/threonine-protein kinase Chk1 (Homo sapiens), sequence (O14757 whole entry): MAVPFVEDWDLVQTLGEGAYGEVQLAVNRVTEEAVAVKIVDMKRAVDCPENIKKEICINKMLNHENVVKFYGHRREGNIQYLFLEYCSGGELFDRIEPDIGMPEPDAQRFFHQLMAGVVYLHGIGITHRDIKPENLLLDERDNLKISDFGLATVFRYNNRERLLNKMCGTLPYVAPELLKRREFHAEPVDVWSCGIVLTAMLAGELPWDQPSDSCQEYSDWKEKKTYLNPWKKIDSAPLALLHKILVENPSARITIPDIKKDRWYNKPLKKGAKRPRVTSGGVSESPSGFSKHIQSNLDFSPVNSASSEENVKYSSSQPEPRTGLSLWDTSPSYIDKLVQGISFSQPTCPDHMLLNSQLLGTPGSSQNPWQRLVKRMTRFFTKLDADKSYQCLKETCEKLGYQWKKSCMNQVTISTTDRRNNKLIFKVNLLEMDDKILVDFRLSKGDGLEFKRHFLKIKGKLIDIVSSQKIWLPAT

[23] = biological target: Death-associated protein kinase 1 (Homo sapiens) (UniProt P53355); assay: Inhibition of DAPK1 at 10 uM
[24] = biological target: Glycogen synthase kinase-3 beta (Homo sapiens) (UniProt P49841); assay: Inhibition of GSK3b at 10 uM
[25] = biological target: Inhibitor of nuclear factor kappa-B kinase subunit epsilon (Homo sapiens) (UniProt Q14164); assay: Inhibition of IKKe at 10 uM
Inhibitor of nuclear factor kappa-B kinase subunit epsilon (Homo sapiens), sequence (Q14164 whole entry): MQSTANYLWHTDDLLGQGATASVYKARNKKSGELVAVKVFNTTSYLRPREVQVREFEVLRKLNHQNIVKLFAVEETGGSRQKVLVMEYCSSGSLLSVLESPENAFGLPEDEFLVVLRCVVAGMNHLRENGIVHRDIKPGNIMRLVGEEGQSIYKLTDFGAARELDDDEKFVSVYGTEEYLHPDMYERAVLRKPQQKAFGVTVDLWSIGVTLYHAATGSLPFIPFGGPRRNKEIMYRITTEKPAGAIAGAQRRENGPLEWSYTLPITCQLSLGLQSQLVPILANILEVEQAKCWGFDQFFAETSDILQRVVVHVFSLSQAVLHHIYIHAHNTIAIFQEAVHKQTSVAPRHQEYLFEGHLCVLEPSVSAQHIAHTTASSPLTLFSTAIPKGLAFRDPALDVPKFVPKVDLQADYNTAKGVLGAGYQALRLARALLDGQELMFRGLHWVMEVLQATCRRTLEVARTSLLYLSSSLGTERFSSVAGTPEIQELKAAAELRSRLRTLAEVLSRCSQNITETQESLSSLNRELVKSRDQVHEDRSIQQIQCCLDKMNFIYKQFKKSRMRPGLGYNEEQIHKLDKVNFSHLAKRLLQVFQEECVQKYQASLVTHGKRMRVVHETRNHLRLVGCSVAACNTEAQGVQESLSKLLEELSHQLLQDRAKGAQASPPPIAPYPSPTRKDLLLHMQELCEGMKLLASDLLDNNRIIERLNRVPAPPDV

[26] = biological target: LKB1-STRAD-MO25 complex (Homo sapiens) (UniProt Q15831+Q7RTN6+Q9Y376); assay: Inhibition of LKB1-MO25a-STRADa at 10 uM; format: protein-complex assay
[27] = biological target: MAP kinase-activated protein kinase 5 (Homo sapiens) (UniProt Q8IW41); assay: Inhibition of MAPKAPK5 at 10 uM
[28] = biological target: Serine/threonine-protein kinase MARK1 (Homo sapiens) (UniProt Q9P0L2); assay: Inhibition of MARK1 at 10 uM
[29] = biological target: Proto-oncogene serine/threonine-protein kinase mos (Homo sapiens) (UniProt P00540); assay: Inhibition of MOS at 10 uM
[30] = biological target: Mitogen-activated protein kinase 12 (Homo sapiens) (UniProt P53778); assay: Inhibition of p38gamma at 10 uM
[31] = Inhibition of p70S6K at 10 uM
[32] = biological target: Serine/threonine-protein kinase pim-3 (Homo sapiens) (UniProt Q86V86); assay: Inhibition of PIM3 at 10 uM
[33] = biological target: Protein kinase C alpha type (Homo sapiens) (UniProt P17252); assay: Inhibition of PKCalpha at 10 uM
[34] = biological target: Protein kinase C delta type (Homo sapiens) (UniProt Q05655); assay: Inhibition of PKCdelta at 10 uM
[35] = biological target: Protein kinase C epsilon type (Homo sapiens) (UniProt Q02156); assay: Inhibition of PKCepsilon at 10 uM
[36] = biological target: Protein kinase C eta type (Homo sapiens) (UniProt P24723); assay: Inhibition of PKCh at 10 uM
[37] = biological target: Interferon-induced, double-stranded RNA-activated protein kinase (Homo sapiens) (UniProt P19525); assay: Inhibition of PKR at 10 uM
Interferon-induced, double-stranded RNA-activated protein kinase (Homo sapiens), sequence (P19525 whole entry): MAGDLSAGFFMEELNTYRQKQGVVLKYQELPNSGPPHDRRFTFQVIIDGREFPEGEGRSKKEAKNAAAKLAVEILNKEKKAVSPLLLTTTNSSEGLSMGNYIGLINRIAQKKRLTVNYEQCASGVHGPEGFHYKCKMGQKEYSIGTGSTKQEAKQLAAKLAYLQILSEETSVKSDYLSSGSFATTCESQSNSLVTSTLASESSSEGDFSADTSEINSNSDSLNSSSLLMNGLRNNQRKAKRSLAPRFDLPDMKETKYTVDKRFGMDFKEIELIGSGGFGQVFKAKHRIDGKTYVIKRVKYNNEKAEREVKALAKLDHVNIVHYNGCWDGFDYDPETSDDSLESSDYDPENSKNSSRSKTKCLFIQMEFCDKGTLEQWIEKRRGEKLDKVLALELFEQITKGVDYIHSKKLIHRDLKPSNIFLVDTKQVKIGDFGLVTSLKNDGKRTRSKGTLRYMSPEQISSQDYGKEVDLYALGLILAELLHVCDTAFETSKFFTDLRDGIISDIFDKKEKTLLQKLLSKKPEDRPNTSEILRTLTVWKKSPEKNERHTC

[38] = biological target: Serine/threonine-protein kinase PLK4 (Homo sapiens) (UniProt O00444); assay: Inhibition of PLK4 at 10 uM
[39] = biological target: Serine/threonine-protein kinase Sgk1 (Homo sapiens) (UniProt O00141); assay: Inhibition of SGK at 10 uM
[40] = biological target: Serine/threonine-protein kinase Sgk2 (Homo sapiens) (UniProt Q9HBY8); assay: Inhibition of SGK2 at 10 uM
[41] = biological target: Myosin light chain kinase 2, skeletal/cardiac muscle (Homo sapiens) (UniProt Q9H1R3); assay: Inhibition of skMLCK at 10 uM
[42] = biological target: STE20-like serine/threonine-protein kinase (Homo sapiens) (UniProt Q9H2G2); assay: Inhibition of SLK at 10 uM
[43] = biological target: Serine/threonine-protein kinase TAO2 (Homo sapiens) (UniProt Q9UL54); assay: Inhibition of TAOK2 at 10 uM
[44] = biological target: Serine/threonine-protein kinase TBK1 (Homo sapiens) (UniProt Q9UHD2); assay: Inhibition of TBK1 at 10 uM
[45] = biological target: Serine/threonine-protein kinase WNK1 (Homo sapiens) (UniProt Q9H4A3); assay: Inhibition of WNK1 at 10 uM
[46] = biological target: PI3-kinase p110-alpha/p85-alpha (Homo sapiens) (UniProt P27986+P42336); assay: Inhibition of PIK3CA/PIK3R1 at 10 uM; format: protein-complex assay
[47] = biological target: Sphingosine kinase 1 (Homo sapiens) (UniProt Q9NYA1); assay: Inhibition of SPHK1 at 10 uM
Sphingosine kinase 1 (Homo sapiens), sequence (Q9NYA1 whole entry): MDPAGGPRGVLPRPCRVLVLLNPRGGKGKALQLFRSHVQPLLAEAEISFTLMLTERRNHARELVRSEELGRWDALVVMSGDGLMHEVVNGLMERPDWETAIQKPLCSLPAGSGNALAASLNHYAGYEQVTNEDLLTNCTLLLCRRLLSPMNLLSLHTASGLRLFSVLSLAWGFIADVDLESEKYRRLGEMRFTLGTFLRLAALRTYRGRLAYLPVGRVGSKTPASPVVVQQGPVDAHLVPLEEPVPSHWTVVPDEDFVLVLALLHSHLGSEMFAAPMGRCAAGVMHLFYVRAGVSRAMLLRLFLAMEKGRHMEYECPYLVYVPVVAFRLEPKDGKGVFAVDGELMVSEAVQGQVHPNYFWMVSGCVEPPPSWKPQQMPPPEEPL

For `COc1ccc2c3ccnc(C(F)(F)F)c3n(CCCCN)c2c1`, which inhibition [1] is on record?
Its inhibition is 4%.

And the inhibition [2]?
Its inhibition is 3%.

What about the inhibition [3] of the same molecule?
Its inhibition is 0%.

And the inhibition [4]?
The inhibition was 4%.

And the inhibition [5]?
The inhibition was 0%.

And the inhibition [6]?
Its inhibition is 3%.

And the inhibition [7]?
The inhibition was 11%.

And the inhibition [8]?
The inhibition was 8%.

What about the inhibition [9] of the same molecule?
Its inhibition is 6%.

What about the inhibition [10] of the same molecule?
Its inhibition is 1%.

And the inhibition [11]?
The inhibition was 0%.

What about the inhibition [12] of the same molecule?
The inhibition was 0%.

What about the inhibition [13] of the same molecule?
Its inhibition is 10%.

And the inhibition [14]?
Its inhibition is 32%.

And the inhibition [15]?
The inhibition was 16%.

And the inhibition [16]?
Its inhibition is 42%.

And the inhibition [17]?
Its inhibition is 27%.

And the inhibition [18]?
Its inhibition is 73%.

What about the inhibition [19] of the same molecule?
The inhibition was 0%.

And the inhibition [20]?
The inhibition was 34%.

And the inhibition [21]?
The inhibition was 53%.

What about the inhibition [22] of the same molecule?
Its inhibition is 25%.

What about the inhibition [23] of the same molecule?
Its inhibition is 41%.

What about the inhibition [24] of the same molecule?
The inhibition was 27%.

And the inhibition [25]?
The inhibition was 0%.

And the inhibition [26]?
Its inhibition is 21%.

What about the inhibition [27] of the same molecule?
Its inhibition is 1%.

What about the inhibition [28] of the same molecule?
The inhibition was 48%.

What about the inhibition [29] of the same molecule?
The inhibition was 16%.

And the inhibition [30]?
The inhibition was 66%.

And the inhibition [31]?
Its inhibition is 76%.

And the inhibition [32]?
Its inhibition is 89%.

What about the inhibition [33] of the same molecule?
Its inhibition is 26%.

What about the inhibition [34] of the same molecule?
The inhibition was 68%.

What about the inhibition [35] of the same molecule?
Its inhibition is 72%.

What about the inhibition [36] of the same molecule?
The inhibition was 77%.

What about the inhibition [37] of the same molecule?
Its inhibition is 6%.

What about the inhibition [38] of the same molecule?
Its inhibition is 22%.

And the inhibition [39]?
Its inhibition is 34%.

And the inhibition [40]?
Its inhibition is 20%.

What about the inhibition [41] of the same molecule?
The inhibition was 34%.

What about the inhibition [42] of the same molecule?
Its inhibition is 20%.

What about the inhibition [43] of the same molecule?
Its inhibition is 4%.

And the inhibition [44]?
Its inhibition is 4%.

What about the inhibition [45] of the same molecule?
The inhibition was 5%.

What about the inhibition [46] of the same molecule?
The inhibition was 13%.

What about the inhibition [47] of the same molecule?
Its inhibition is 0%.
